row,SMILES,melting point [°C]
1,"O=C(c1ccc(Cl)cc1)[C@H]1C[C@H]1C(=O)N1CCC(N2Cc3ccccc3NC2=O)CC1 (relative stereo) [Item No. 1, cis-3-{1-[2-(4-chlorobenzoyl)cyclopropanecarbonyl]-4-piperidinyl}-3,4-dihydro-2(1H)-quinazolinone]",272 to 273
2,"CN(C)CCOc1ccc2c(c1)CN(C1CCN(C(=O)[C@@H]3C[C@H]3C(=O)c3cc(Br)c(N)c(Br)c3)CC1)C(=O)N2 (relative stereo) [Item No. 16, trans-3-{1-[2-(4-amino-3,5-dibromobenzoyl)cyclopropanecarbonyl]-4-piperidinyl}-3,4-dihydro-6-[2-(dimethylamino)ethoxy]-2(1H)-quinazolinone]",235
3,"Nc1c(Br)cc(C(=O)[C@@H]2C[C@H]2C(=O)N2CCC(n3cc(-c4ccccc4C(F)(F)F)[nH]c3=O)CC2)cc1Br (relative stereo) [Item No. 18, trans-1-{1-[2-(4-amino-3,5-dibromobenzoyl)cyclopropanecarbonyl]-4-piperidinyl}-1,3-dihydro-4-[2-(trifluoromethyl)phenyl]-2(2H)-imidazolone]",248

# Reference: patent publication US7407963B2, “Cyclopropane CGRP antagonists, medicaments containing these compounds, and method for the production thereof” (Boehringer Ingelheim Pharma GmbH & Co. KG, priority 1999, dated 2008)
